The target of this test is RpedOBP38 (Riptortus pedestris, UniProt A0A2Z4HQ26). As to the kind of experiment: Fluorescence competitive binding assay (1-NPN displacement). The settings on record: for IC50: 2 μM recombinant RpedOBP38 and 1-NPN, PBS pH 7.4, three replicates. The source says: Recombinant RpedOBP38 binding to putative chemical ligands was characterized with a microplate reader (BioTek Synergy H1, United States). Fluorescence intensity values at the excitation wavelength of 337 nm and a maximum fluorescence emission wavelength of 450 nm were plotted against the free concentration of ligand for the measurement of dissociation constants, selecting candidate ligands from among 36 volatile compounds that included 11 green leaf volatiles ([Chen et al., 2018]; [Guo and Wang, 2019]; [Cheng et al., 2020]; [Hong et al., 2022]; [Tang et al., 2023]; [Zhu et al., 2023]), 11 soybean volatiles ([Wang et al., 2019a]; [Zhu et al., 2022]), 10 repellent activity volatiles ([Zhang et al., 2013]; [Zhang et al., 2014]), and 4 aggregation pheromone compounds ([Leal et al., 1995]; [Yasuda et al., 2007]). HPLC-grade methanol was used for the dissolution of the probe N-phenyl-1-naphthylamine (1-NPN) and all ligands. The ability of RpedOBP38 to bind 1-NPN was assessed by using 10 mM PBS (pH 7.4) to prepare a 2 μM purified protein solution, titrating with 1 mM 1-NPN in methanol to prepare final concentrations from 2–20 μM. RpedOBP38 binding to each ligand was evaluated in a solution consisting of 2 μM purified protein and 1-NPN, followed by titration through the addition of ligands until no further decrease in the fluorescence intensity was observed. Ligands were independently replicated three times, and dissociation constants for each ligand were measured as follows: Ki = [IC50]/(1 + [1-NPN]/K1-NPN), where IC50 denotes the ligand concentration when the fluorescence intensity is half of the initial value [1-NPN] is the free 1-NPN concentration, and K1-NPN is the dissociation constant for the RpedOBP38/1-NPN complex ([Campanacci et al., 2001]).
Sequence of RpedOBP38 (A0A2Z4HQ26 entry or part of it): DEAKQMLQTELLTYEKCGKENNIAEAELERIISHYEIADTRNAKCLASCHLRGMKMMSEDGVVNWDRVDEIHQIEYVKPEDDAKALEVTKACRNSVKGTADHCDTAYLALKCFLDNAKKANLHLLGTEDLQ

The mark [1] stands for this setting: values as quoted in running text.
The mark [2] stands for this setting: Ki = [IC50]/(1 + [1-NPN]/K1-NPN), 2 μM protein and 1-NPN, Ki > 40 considered weak binding.

This passage reports Ki and IC50 results from PMC11743672, “Characterization of the ligand-binding properties of odorant-binding protein 38 from Riptortus pedestris when interacting with soybean volatiles” (Frontiers in Physiology, 2025).

Where two headings read alike, the source gives them in different places.

The Ki is a dissociation constant, usually derived from enzyme kinetics or from competition with a known ligand. The IC50 is the concentration that gives 50% inhibition. In the case of `C=C(C)C1CC=C(C)C(=O)C1` (single isomer, unassigned; (-)) [(−)-carvone], the Ki was 27.2 ± 3.88 µM and the IC50 is 36.2 ± 5.17 µM. Also, under setting [1], the Ki was 27.2 µM.
The like results for `CC1=CC[C@](O)(C(C)C)CC1` [(+) -4-terpineol] were, in that order, 14 ± 0.321 µM, 18.7 ± 0.428 µM and 14 µM.
As for `C=C(C)[C@H]1CC=C(C)C(=O)C1` [(+)-carvone], the IC50 was > 40 µM. Besides, the Ki under setting [2] is > 40 µM.
Regarding `CC1=CC[C@@](O)(C(C)C)CC1` [(−) -4-terpineol], the IC50 was > 40 µM. For the same compound, under setting [2], the Ki is > 40 µM.
On to `CC1=CCC2CC1C2(C)C` (stereo not drawn) [(−)-α-pinene], for which the IC50 is > 40 µM. In addition, the Ki under setting [2] is > 40 µM.
`CCCCCCCCCCCCCCOC(=O)C(C)C` [myristyl isobutyrate]: the IC50 was > 40 µM. Also, the Ki under setting [2] is > 40 µM.
